Results reported in US10807994B2, “Heterocyclic compounds and uses thereof” (NUVATION BIO INC., priority 2017, dated 2020).
Structures can show the parent of a compound that is named as a salt. Where two headings read alike, the source gives them in different places.

Assays:
[1] = molecular target: WEE1 kinase enzyme (Homo sapiens (Human), UniProt P30291); assay: WEE1 IC50 determination, LanthaScreen Terbium labeled TR-FRET kinase assay; assay type: biochemical; settings: WEE1 enzyme 1 nM
Experimental: IC50 values of compounds against WEE1 kinase enzyme were determined by LanthaScreen™ Terbium Labeled TR-FRET assay. Kinase assays were performed in 1× kinase buffer (# PV6135, Invitrogen, Life Technologies Grand Island, N.Y.) where total reaction volume was 10 μl in low-volume 384-well plates (#4511, Corning). Serially diluted compounds (3-fold) were incubated with WEE1 Enzyme (1 nM) (# PR7373A, Invitrogen, Life Technologies Grand Island, N.Y.) for 10 min, following which a mixture of ATP […] (# A1852, Sigma, St-Louis, Mo.) and fluorescent-PolyGT substrate (200 nM) (# PV3610, Invitrogen, Life Technologies Grand Island, N.Y.) was added and incubated in dark at room temperature for 1 h. After 1 h, 10 μl stop solution containing Terbium labeled antibody (4 nM) (# PV3529, Invitrogen, Life Technologies Grand Island, N.Y.) and EDTA (# E5134, Sigma, St-Louis, Mo.) (20 mM) in TR-FRET dilution buffer (# PV3574, Invitrogen, Life Technologies Grand Island, N.Y.) was added. Readings were taken in a Synergy Neo Plate reader (BioTek, Winooski) at single excitation of 340 nm and Dual emission at 495 nm and 520 nm respectively.
The % activity of test samples was calculated as (Sample−Min)*100/(Max−Min). [Max: DMSO control, complete reaction with enzyme & DMSO and Min: No enzyme & DMSO]. Percent inhibition (100-% activity) was fitted to the “four-parameter logistic model” in XLfit for determination of IC50 values.

[2] = system: A549 cells; assay: Cytotoxicity assay (resazurin), A549 cells, 96 hr; assay type: cell-based; settings: read-out: Cell Viability A549 IC50
Experimental: (§1) A549 (CCL-185; ATCC) and A427 (HTB-53; ATCC), both lung epithelial cell lines were seeded in their respective medium (DMEM/MEM, 10569044/41090101; Gibco) at a cell count of 1500 cells per 100 μL per well in a 96 well edge plate (167425; ThermoFisher). Cells were allowed to grow at 37° C. for 24 hr in 5% CO2 environment (culture conditions) in a Nuaire incubator (humidified). Serially diluted test compounds (100 μL) within the desired testing concentration ranges were added to the culture plate were further incubated in culture conditions for 72 hr and 96 hr for A427 and A549 respectively. The experiment was terminated at the designated incubation time by replacing the medium with 100 μL of 1 mM of resazurin (R7017; Sigma) prepared in respective culture medium, and the plates were further incubated in culture conditions for 4-6 hr. Fluorescence was recorded using a multimodal plate reader (Biotek Synergy Neo) at an excitation wavelength of 535 nm and emission wavelength of 590 nm to obtain relative fluorescence units. Data analysis was done by subtracting the background fluorescence (only medium blank) value from each reading and then normalizing with the vehicle control (DMSO treated cells) to obtain percent survival/proliferation. Percent survival was then subtracted by 100 to get the percent inhibition of proliferation which was used to calculate IC50 values. Potency of compounds in other cell lines (As-Pc-1, Panc-10.05, MDAMB231, A172) was determined in an analogous manner.

[3] = system: A427 cells; assay: Cytotoxicity assay (resazurin), A427 cells, 72 hr; assay type: cell-based; settings: Homo sapiens, A-427, read-out: Cell Viability A427 IC50
Experimental: as §1

Chain of WEE1 kinase enzyme (P30291 whole entry): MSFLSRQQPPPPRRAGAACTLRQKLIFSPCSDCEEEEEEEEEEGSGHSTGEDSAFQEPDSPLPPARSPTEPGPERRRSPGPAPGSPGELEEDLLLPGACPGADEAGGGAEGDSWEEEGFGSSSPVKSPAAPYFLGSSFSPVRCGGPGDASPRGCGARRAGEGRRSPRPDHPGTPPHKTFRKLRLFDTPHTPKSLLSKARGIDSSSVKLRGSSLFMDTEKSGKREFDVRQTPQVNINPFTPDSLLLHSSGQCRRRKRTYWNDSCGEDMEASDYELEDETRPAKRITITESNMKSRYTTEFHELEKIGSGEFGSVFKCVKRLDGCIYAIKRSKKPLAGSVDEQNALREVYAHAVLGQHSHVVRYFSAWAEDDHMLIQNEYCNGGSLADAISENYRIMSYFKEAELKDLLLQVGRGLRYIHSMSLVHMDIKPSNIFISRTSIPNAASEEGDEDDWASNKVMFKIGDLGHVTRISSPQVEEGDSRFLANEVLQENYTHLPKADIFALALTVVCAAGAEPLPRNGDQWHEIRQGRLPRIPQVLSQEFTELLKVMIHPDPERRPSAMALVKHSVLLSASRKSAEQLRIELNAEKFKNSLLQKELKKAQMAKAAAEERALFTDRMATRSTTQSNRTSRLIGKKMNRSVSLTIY

Row | Structure (SMILES) | IC50 [1] | IC50 ([2]; Homo sapiens) | IC50 [3] | IC50 [2]
1 | O=C1c2cnc(Nc3ccc4c(c3)CCNC4)nc2OCN1c1c(Cl)cccc1Cl [Example 1.44, 3-(2,6-dichlorophenyl)-7-(1,2,3,4-tetrahydroisoquinolin-6-ylamino)-2H-pyrimido[5,4-e][1,3]oxazin-4(3H)-one] | 0.023 µM | 5.79 µM |  | 
2 | CN1CCc2ccc(Nc3ncc4c(n3)OCN(c3c(Cl)cccc3Cl)C4=O)cc2C1 [Example 1.35, 3-(2,6-dichlorophenyl)-7-(2-methyl-1,2,3,4-tetrahydroisoquinolin-7-ylamino)-2H-pyrimido[5,4-e][1,3]oxazin-4(3H)-one] | 0.035 µM | 11.1 µM |  | 
3 | CNCCNc1ccc(Nc2ncc3c(n2)OCN(c2c(Cl)cccc2Cl)C3=O)cc1 [Example 1.54, 3-(2,6-dichlorophenyl)-7-(4-(2-(methylamino)ethylamino)phenylamino)-2H-pyrimido[5,4-e][1,3]oxazin-4(3H)-one Hydrochloride] | 0.2 µM | 9.58 µM | 10.5 µM | 
4 | O=C1c2cnc(Nc3ccc(N4CCN(CCO)CC4)cc3)nc2OCN1c1c(Cl)cccc1Cl [Example 1.58, 3-(2,6-dichlorophenyl)-7-(4-(4-(2-hydroxyethyl)piperazin-1-yl)phenylamino)-2H-pyrimido[5,4-e][1,3]oxazin-4(3H)-one] | 0.234 µM | 12.3 µM | 7.12 µM | 
5 | O=C1c2cnc(Nc3ccc(N4CCNCC4)c(Cl)c3)nc2OCN1c1c(Cl)cccc1Cl [Example 1.40, 7-(3-chloro-4-(piperazin-1-yl)phenylamino)-3-(2,6-dichlorophenyl)-2H-pyrimido[5,4-e][1,3]oxazin-4(3H)-one] | 0.02 µM | 2.73 µM | 2.65 µM | 
6 | O=C1c2cnc(Nc3ccc(N4CCNCC4)c(F)c3)nc2OCN1c1c(Cl)cccc1Cl [Example 1.29] | 0.212 µM | 8.88 µM |  | 
7 | CN1Cc2cc(Nc3ncc4c(n3)OCN(c3c(Cl)cccc3Cl)C4=O)ccc2C(C)(C)C1 [Example 1.4] | 0.009 µM | 5.74 µM |  | 
8 | O=C1c2cnc(Nc3ccc(N4CCC(O)CC4)cc3)nc2OCN1c1c(Cl)cccc1Cl [Example 1.45, 3-(2,6-dichlorophenyl)-7-(4-(4-hydroxypiperidin-1-yl)phenylamino)-2H-pyrimido[5,4-e][1,3]oxazin-4(3H)-one] | 0.288 µM | > 30 µM |  | 
9 | Cc1cc(Nc2ncc3c(n2)OCN(c2c(Cl)cccc2Cl)C3=O)ccc1N1CCNCC1 [Example 1.33, 3-(2,6-dichlorophenyl)-7-(3-methyl-4-(piperazin-1-yl)phenylamino)-2H-pyrimido[5,4-e][1,3]oxazin-4(3H)-one] | 0.05 µM | 2.69 µM | 2.82 µM | 
10 | CN1CCC(c2ccc(Nc3ncc4c(n3)OCN(c3c(Cl)cccc3Cl)C4=O)cc2CO)CC1 [Example 1.42, 3-(2,6-dichlorophenyl)-7-(3-(hydroxymethyl)-4-(1-methylpiperidin-4-yl)phenylamino)-2H-pyrimido[5,4-e][1,3]oxazin-4(3H)-one] | 0.025 µM | 5.6 µM | 3.2 µM | 
11 | O=C1c2cnc(Nc3ccc(N4CCNC[C@H]4CO)cc3)nc2OCN1c1c(Cl)cccc1Cl [Example 1.38, (S)-3-(2,6-dichlorophenyl)-7-(4-(2-(hydroxymethyl)piperazin-1-yl)phenylamino)-2H-pyrimido[5,4-e][1,3]oxazin-4(3H)-one] | 0.176 µM | 9.15 µM |  | 
12 | COc1cc(Nc2ncc3c(n2)OCN(c2c(Cl)cccc2Cl)C3=O)ccc1C1CCNCC1 [Example 1.50, 3-(2,6-dichlorophenyl)-7-(3-methoxy-4-(piperidin-4-yl)phenylamino)-2H-pyrimido[5,4-e][1,3]oxazin-4(3H)-one] | 0.028 µM | 2.79 µM | 3.48 µM | 
13 | CNCCOc1ccc(Nc2ncc3c(n2)OCN(c2c(Cl)cccc2Cl)C3=O)cc1 [Example 1.48, 3-(2,6-dichlorophenyl)-7-(4-(2-(methylamino)ethoxy)phenylamino)-2H-pyrimido[5,4-e][1,3]oxazin-4(3H)-one] | 0.103 µM | 8.38 µM | 11.1 µM | 
14 | O=C1c2cnc(Nc3ccc(N4CCNCC4)nc3)nc2OCN1c1c(Cl)cccc1Cl [Example 1.36, 3-(2,6-dichlorophenyl)-7-((6-(piperazin-1-yl)pyridin-3-yl)amino)-2,3-dihydro-4H-pyrimido[5,4-e][1,3]oxazin-4-one] | 0.104 µM | 8.12 µM | 10.4 µM | 
15 | O=C1c2cnc(Nc3ccc(N4CCCC4)cc3)nc2OCN1c1c(Cl)cccc1Cl [Example 1.56, 3-(2,6-dichlorophenyl)-7-(4-(pyrrolidin-1-yl)phenylamino)-2H-pyrimido[5,4-e][1,3]oxazin-4(3H)-one] | > 5 µM | 1.86 µM | 10.5 µM | 
16 | NCC(=O)N1CCN(c2ccc(Nc3ncc4c(n3)OCN(c3c(Cl)cccc3Cl)C4=O)cc2)CC1 [Example 1.46, 7-(4-(4-(2-aminoacetyl)piperazin-1-yl)phenylamino)-3-(2,6-dichlorophenyl)-2H-pyrimido[5,4-e][1,3]oxazin-4(3H)-one] | 0.053 µM | 9.86 µM |  | 
17 | O=C1c2cnc(Nc3ccc(N4CCNC[C@@H]4CO)cc3)nc2OCN1c1c(Cl)cccc1Cl [Example 1.37, (R)-3-(2,6-dichlorophenyl)-7-(4-(2-(hydroxymethyl)piperazin-1-yl)phenylamino)-2H-pyrimido[5,4-e][1,3]oxazin-4(3H)-one] | 0.113 µM | 9.82 µM |  | 
18 | CN1CCN(c2ccc(Nc3ncc4c(n3)OCN(c3c(Cl)cncc3Cl)C4=O)cc2)CC1 [Example 1.43, 3-(3,5-dichloropyridin-4-yl)-7-(4-(4-methylpiperazin-1-yl)phenylamino)-2H-pyrimido[5,4-e][1,3]oxazin-4(3H)-one] | 0.479 µM | 22.1 µM |  | 
19 | O=C1c2cnc(Nc3ccc(N4CCNCC4)cc3)nc2OCN1c1c(F)cccc1F [Example 1.39, 3-(2,6-difluorophenyl)-7-(4-(piperazin-1-yl)phenylamino)-2H-pyrimido[5,4-e][1,3]oxazin-4(3H)-one] | 0.54 µM | 10.5 µM |  | 
20 | CN1CCN(c2ccc(Nc3cc4c(cn3)C(=O)N(c3c(Cl)cccc3Cl)CO4)cc2)CC1 [Example 1.32, 3-(2,6-dichlorophenyl)-7-(4-(4-methylpiperazin-1-yl)phenylamino)-2H-pyrido[3,4-e][1,3]oxazin-4(3H)-one] | 0.366 µM |  |  | 7.43 µM
21 | CC1CNCCN1c1ccc(Nc2ncc3c(n2)SCN(c2c(Cl)cccc2Cl)C3=O)cc1Cl (stereo not drawn) [Example 1.243] | 0.948 µM |  | 0.625 µM | 
22 | C[C@H]1CN(c2ccc(Nc3ncc4c(n3)OCN(c3c(Cl)cccc3Cl)C4=O)cc2Cl)CCN1 [Example 1.229] | 0.185 µM |  | 2.25 µM | 
23 | O=C1c2cnc(Nc3ccc4c(c3)CCNC4)nc2SCN1c1c(Cl)cccc1Cl [Example 1.234] | 0.202 µM |  | 4.84 µM | 
24 | Cc1cccc(Cl)c1N1COc2nc(Nc3ccc(N4CCNCC4)cc3)ncc2C1=O [Example 1.30, 3-(2-chloro-6-methylphenyl)-7-((4-(piperazin-1-yl)phenyl)amino)-2,3-dihydro-4H-pyrimido[5,4-e][1,3]oxazin-4-one] | 0.325 µM | 8.65 µM |  | 
25 | C[C@@H]1CN(c2ccc(Nc3ncc4c(n3)OCN(c3c(Cl)cccc3Cl)C4=O)cc2F)CCN1 [Example 1.174] | 0.032 µM |  | 3.4 µM | 
26 | O=C1CNCCN1c1ccc(Nc2ncc3c(n2)OCN(c2c(Cl)cccc2Cl)C3=O)cc1 [Example 1.41, 3-(2,6-dichlorophenyl)-7-((4-(2-oxopiperazin-1-yl)phenyl)amino)-2,3-dihydro-4H-pyrimido[5,4-e][1,3]oxazin-4-one] | 0.791 µM | > 30 µM |  | 
27 | CC1(C)CNCc2cc(Nc3ncc4c(n3)SCN(c3c(F)cccc3Cl)C4=O)ccc21 [Example 1.238] | 0.045 µM |  | 5.29 µM | 
